Measured values from patent US20220370463A1, “STABILIZED C-FMS INTRACELLULAR FRAGMENTS (FICD) PROMOTE OSTEOCLAST DIFFERENTIATION AND ARTHRITIC BONE EROSION” (New York Society for the Relief of the Ruptured and …, priority 2019, published 2022).

Legend:
[1] = system: FICDs (c-FMS intracellular fragments); experiment: FICD generation in M-CSF-cultured human CD14+ cells, immunoblot of whole lysates; type: cell-based; details: MDL28170 treatment
Procedure: FIGS. 8A-8I show c-FMS expression in synovial macrophages. (A) The levels of M-CSF in synovial fluids from patients with rheumatoid arthritis (RA, n=13) and osteoarthritis (OA, n=8) were measured. (B) Mass spectrometry analysis for proteins from ˜50 kDa bands (red box) identified c-FMS as one of top genes. An image of coomassie blue stained genes showing immunoprecipitated cells lysates with either anti-DDK-tag antibodies or IgG control. (C-G) Human CD14+ cells were cultured with M-CSF (20ng/ml). Immunoblot of c-FMS with different antibodies against C-terminal of c-FMS; (C) C-20, (D) D-8, and (E) #3152. Immunoblot of c-FMS with different antibodies against N-terminal of c-FMS; (F) #61701, (G) H-300. (H-I) Human CD14+ cells were cultured with M-CSF (20 ng/ml) for 8 hours to induce early signals, and then BB94 (10 uM) was added for 2 days. (H) Immunoblot with anti c-FMS and α-tubulin antibodies in whole lysates (n=3). (I) Soluble c-FMS was detected by ELISA (n=3). […] All data are shown as mean±SEM. *; p<0.05 significant by two-tailed, paired t-test (A and I). M: mature form, I: immature form, H: hgh mass, L: low mass.
FIGS. 10A-10F show calpain regulates FICD generation. (A and B) Human CD14+ cells were cultured with M-CSF (20 ng/ml) for 8 hours to induce early signals and then (A) MDL 28170(0, 1, 2, 5 uM) or (B) PD150606 (0, 2, 5 uM) was added for 2 days. […]

[2] = system: human CD14+ cells; experiment: Human osteoclastogenesis assay (TRAP-positive multinuclear cells); type: cell-based; details: M-CSF, RANKL and MDL28170 for 4 days
Procedure: FIGS. 10A-10F show calpain regulates FICD generation. (A and B) Human CD14+ cells were cultured with M-CSF (20 ng/ml) for 8 hours to induce early signals and then (A) MDL 28170(0, 1, 2, 5 uM) or (B) PD150606 (0, 2, 5 uM) was added for 2 days. Immunoblot with anti c-FMS and α-tubulin antibodies in whole lysates(n=3). (C) Immunoblot of nuclear lysates with c-FMS and Lamin B1 antibodies. Cells were cultured with M-CSF for 12 hours, and then M-CSF was removed. Cells were subsequently treated with or without CaCl2 (10 mM) for an additional 24 hours. (D) Osteoclastogenesis assay. Human CD14+ cells were cultured with M-CSF, RANKL and MDL28170 for 4 days. […] Black scale bar is 100 μm. (E) A table showing the calpain cleavage site in c-FMS predicted by GPS-CCD program. First two calpain cleavage sites in cytoplasmic domains of c-FMS were used for FICD constructs. (F) A schematic diagram of a FICD construct. Representative results from at least three independent experiments.
For human osteoclastogenesis assays, cells were added to 96 well plates in triplicate at a seeding density of 5×10^4 cells per well. Osteoclast precursors were incubated with 20 ng/ml of M-CSF and 40 ng/ml of human soluble RANKL up to 5 days in α-MEM supplemented with 10% FBS and 1% L-glutamine. […] Multinucleated (greater than 3 nuclei), TRAP-positive osteoclasts were counted in triplicate wells. […]

In the case of MDL28170, the L-FICD [1] is reported as “decreased” and the osteoclast differentiation [2] is reported as “decreased”.
